Assay results taken from ChEMBL document CHEMBL5356994, “Synthesis, biological and molecular modelling for 1,3,4-thiadiazole sulfonyl thioureas: bacterial and fungal activity” (RSC Med Chem, 2023).
Converted amounts (≈) assume the structure as drawn.

What was measured:
Fusarium oxysporum = experiment: Antifungal activity against Fusarium oxysporum assessed as inhibition of fungal growth incubated for 72 hrs by agar dilution method; format: functional
Staphylococcus aureus [1] = experiment: Antibacterial activity against Staphylococcus aureus assessed as inhibition of bacterial growth incubated for 18 to 20 hrs by microbroth dilution method; format: functional; conditions: time 18-20 hrs
Candida albicans [2] = experiment: Antifungal activity against Candida albicans assessed as inhibition of fungal growth incubated for 72 hrs by agar dilution method; format: functional
Clostridioides difficile = experiment: Antibacterial activity against Clostridium difficile assessed as inhibition of bacterial growth incubated for 18 to 20 hrs by microbroth dilution method; format: functional; conditions: time 18-20 hrs
Dihydrofolate reductase = Dihydrofolate reductase (Staphylococcus aureus, UniProt P0A017); experiment: Inhibition of Staphylococcus aureus dihydrofolate reductase using dihydrofolate as substrate in presence of NADPH by microplate reader analysis
Streptococcus pneumoniae = experiment: Antibacterial activity against Streptococcus pneumoniae assessed as inhibition of bacterial growth incubated for 18 to 20 hrs by microbroth dilution method; format: functional; conditions: time 18-20 hrs
Pseudomonas aeruginosa = experiment: Antibacterial activity against Pseudomonas aeruginosa assessed as inhibition of bacterial growth incubated for 18 to 20 hrs by microbroth dilution method; format: functional; conditions: time 18-20 hrs
Escherichia coli [3] = experiment: Antibacterial activity against Escherichia coli assessed as inhibition of bacterial growth incubated for 18 to 20 hrs by microbroth dilution method; format: functional; conditions: time 18-20 hrs
[4] = test system: Staphylococcus epidermidis; experiment: Antibacterial activity against Staphylococcus epidermidis assessed as inhibition of bacterial growth incubated for 18 to 20 hrs by microbroth dilution method; format: functional; conditions: time 18-20 hrs
Saccharomyces cerevisiae = experiment: Antifungal activity against Saccharomyces cerevisiae assessed as inhibition of fungal growth incubated for 72 hrs by agar dilution method; format: functional
DNA gyrase subunit B = DNA gyrase subunit B (Staphylococcus aureus, UniProt P0A0K8); experiment: Inhibition of Staphylococcus aureus DNA gyrase subunit B ATPase activity using relaxed pNO1 plasmid as substrate incubated for 30 mins by microplate reader analysis
[5] = target: DNA topoisomerase 4 subunit B (Staphylococcus aureus, UniProt P0C1S7); experiment: Inhibition of Staphylococcus aureus DNA topoisomerase 4 subunit B ATPase activity using relaxed pNO1 plasmid as substrate incubated for 30 mins by microplate reader analysis
Salmonella typhimurium = experiment: Antibacterial activity against Salmonella typhimurium assessed as inhibition of bacterial growth incubated for 18 to 20 hrs by microbroth dilution method; format: functional, Salmonella enterica subsp. enterica serovar Typhimurium; conditions: Salmonella enterica; time 18-20 hrs
Aspergillus niger = experiment: Antifungal activity against Aspergillus niger assessed as inhibition of fungal growth incubated for 72 hrs by agar dilution method; format: functional
Aspergillus flavus [6] = experiment: Antifungal activity against Aspergillus flavus assessed as inhibition of fungal growth incubated for 72 hrs by agar dilution method; format: functional
Klebsiella pneumoniae = experiment: Antibacterial activity against Klebsiella pneumoniae assessed as inhibition of bacterial growth incubated for 18 to 20 hrs by microbroth dilution method; format: functional; conditions: time 18-20 hrs
Bacillus subtilis = experiment: Antibacterial activity against Bacillus subtilis assessed as inhibition of bacterial growth incubated for 18 to 20 hrs by microbroth dilution method; format: functional; conditions: time 18-20 hrs
Carbonic anhydrase 2 = Carbonic anhydrase 2 (Homo sapiens, UniProt P00918); experiment: Inhibition of human carbonic anhydrase II esterase activity using p-nitrophenol acetate as substrate and measured for 3 mins by UV/visible spectrophotometric analysis
[7] = test system: Mycobacterium tuberculosis; experiment: Antitubercular activity against Mycobacterium tuberculosis H37Rv assessed as inhibition of bacterial growth incubated for 24 hrs by two-fold dilution method; format: functional
Aspergillus flavus [8] = experiment: Antifungal activity against Aspergillus flavus assessed as inhibition of fungal growth incubated for 16 to 18 hrs by serial dilution method; format: functional; conditions: time 16-18 hrs
Staphylococcus aureus [9] = experiment: Antibacterial activity against Staphylococcus aureus assessed as inhibition of bacterial growth incubated for 16 to 18 hrs by serial dilution method; format: functional; conditions: time 16-18 hrs
Candida albicans [10] = experiment: Antifungal activity against Candida albicans assessed as inhibition of fungal growth incubated for 16 to 18 hrs by serial dilution method; format: functional; conditions: time 16-18 hrs
Candida albicans [11] = experiment: Antifungal activity against Candida albicans assessed as inhibition of fungal growth incubated for 20 hrs by macro-broth dilution method; format: functional
Escherichia coli [12] = experiment: Antibacterial activity against Escherichia coli assessed as inhibition of bacterial growth incubated for 16 to 18 hrs by serial dilution method; format: functional; conditions: time 16-18 hrs

Dihydrofolate reductase, sequence (P0A017 whole entry): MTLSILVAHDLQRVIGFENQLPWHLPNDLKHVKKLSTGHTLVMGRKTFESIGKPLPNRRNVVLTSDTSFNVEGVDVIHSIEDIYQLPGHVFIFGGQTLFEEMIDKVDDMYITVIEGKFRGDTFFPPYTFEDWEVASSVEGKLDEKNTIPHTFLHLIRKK
DNA gyrase subunit B, sequence (P0A0K8 whole entry): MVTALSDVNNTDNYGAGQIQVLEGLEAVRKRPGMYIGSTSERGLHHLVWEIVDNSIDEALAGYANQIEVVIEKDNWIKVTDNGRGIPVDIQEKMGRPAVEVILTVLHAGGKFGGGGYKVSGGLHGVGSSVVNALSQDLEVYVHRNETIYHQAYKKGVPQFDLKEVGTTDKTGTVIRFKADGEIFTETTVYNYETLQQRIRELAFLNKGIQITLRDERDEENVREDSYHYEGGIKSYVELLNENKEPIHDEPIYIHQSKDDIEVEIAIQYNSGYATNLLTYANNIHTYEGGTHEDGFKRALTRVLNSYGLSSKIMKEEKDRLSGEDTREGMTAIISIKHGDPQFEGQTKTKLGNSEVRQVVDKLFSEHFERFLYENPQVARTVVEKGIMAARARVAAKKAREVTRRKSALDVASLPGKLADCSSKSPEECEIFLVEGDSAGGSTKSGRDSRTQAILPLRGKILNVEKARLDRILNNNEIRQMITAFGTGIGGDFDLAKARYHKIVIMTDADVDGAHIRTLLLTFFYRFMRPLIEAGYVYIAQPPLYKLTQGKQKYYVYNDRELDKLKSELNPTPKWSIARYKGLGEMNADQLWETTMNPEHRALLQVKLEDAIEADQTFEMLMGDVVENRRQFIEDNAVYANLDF
DNA topoisomerase 4 subunit B, sequence (P0C1S7 whole entry): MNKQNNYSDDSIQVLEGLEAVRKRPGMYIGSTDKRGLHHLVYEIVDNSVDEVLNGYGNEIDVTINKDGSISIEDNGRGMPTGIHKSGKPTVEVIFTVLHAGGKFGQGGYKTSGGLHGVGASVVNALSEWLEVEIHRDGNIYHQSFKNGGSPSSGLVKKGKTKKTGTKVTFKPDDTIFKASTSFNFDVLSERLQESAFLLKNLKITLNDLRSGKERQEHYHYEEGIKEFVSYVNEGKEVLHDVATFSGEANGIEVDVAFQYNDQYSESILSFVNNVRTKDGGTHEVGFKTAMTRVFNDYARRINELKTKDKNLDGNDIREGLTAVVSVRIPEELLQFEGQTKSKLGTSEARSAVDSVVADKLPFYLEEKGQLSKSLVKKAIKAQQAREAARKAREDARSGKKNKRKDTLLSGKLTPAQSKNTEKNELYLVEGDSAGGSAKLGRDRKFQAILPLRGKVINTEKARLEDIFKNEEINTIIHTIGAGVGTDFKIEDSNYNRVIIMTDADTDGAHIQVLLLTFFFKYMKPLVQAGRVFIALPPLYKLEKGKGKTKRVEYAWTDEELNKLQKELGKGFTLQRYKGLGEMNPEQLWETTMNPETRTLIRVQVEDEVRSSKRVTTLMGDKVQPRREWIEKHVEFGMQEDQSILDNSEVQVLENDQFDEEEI

Compound | MIC (Fusarium oxysporum) | MIC (Staphylococcus aureus [1]) | MIC (Candida albicans [2]) | MIC (Clostridioides difficile) | MIC (Streptococcus pneumoniae) | MIC (Pseudomonas aeruginosa) | MIC [4] | MIC (Saccharomyces cerevisiae) | MIC (Salmonella typhimurium) | MIC (Aspergillus niger) | MIC (Aspergillus flavus [6]) | MIC (Klebsiella pneumoniae) | MIC (Bacillus subtilis) | MIC [7] | other results
CCCCCc1nnc(NC(=S)NS(=O)(=O)c2ccc(C)cc2)s1 | 1.56 µg/mL (≈ 4.06 µM) | 0.78 µg/mL (≈ 2.03 µM) | 200 µg/mL (≈ 520 µM) | 12.5 µg/mL (≈ 32.5 µM) | 200 µg/mL (≈ 520 µM) | 0.78 µg/mL (≈ 2.03 µM) | 0.78 µg/mL (≈ 2.03 µM) | 400 µg/mL (≈ 1040 µM) | 100 µg/mL (≈ 260 µM) | 3.12 µg/mL (≈ 8.13 µM) | 12.5 µg/mL (≈ 32.5 µM) | 1.56 µg/mL (≈ 4.06 µM) | 200 µg/mL (≈ 520 µM) |  | IC50 (Dihydrofolate reductase): 230 nM; MIC (Escherichia coli [3]): 0.78 µg/mL (≈ 2.03 µM); IC50 (DNA gyrase subunit B): 1220 nM; IC50 [5]: 53800 nM
O=S(=O)(NC(=S)Nc1ccccc1)c1ccccc1 |  |  |  |  |  |  |  |  |  |  |  |  |  |  | IC50 (Carbonic anhydrase 2): 422000 nM
Cc1ccc(S(=O)(=O)NC(=S)Nc2nnc(C(C)C)s2)cc1 | 6.25 µg/mL (≈ 17.5 µM) | 12.5 µg/mL (≈ 35.1 µM) | 6.25 µg/mL (≈ 17.5 µM) | 50 µg/mL (≈ 140 µM) | 3.12 µg/mL (≈ 8.77 µM) | 12.5 µg/mL (≈ 35.1 µM) | 1.56 µg/mL (≈ 4.38 µM) | 100 µg/mL (≈ 281 µM) | 6.25 µg/mL (≈ 17.5 µM) | 6.25 µg/mL (≈ 17.5 µM) | 200 µg/mL (≈ 561 µM) | 3.12 µg/mL (≈ 8.77 µM) | 1.56 µg/mL (≈ 4.38 µM) |  | MIC (Escherichia coli [3]): 3.12 µg/mL (≈ 8.77 µM)
Cc1ccc(S(=O)(=O)NC(=S)Nc2nnc(CCC(C)C)s2)cc1 | 0.78 µg/mL (≈ 2.03 µM) | 1.56 µg/mL (≈ 4.06 µM) | 12.5 µg/mL (≈ 32.5 µM) | 1.56 µg/mL (≈ 4.06 µM) | 50 µg/mL (≈ 130 µM) | 3.12 µg/mL (≈ 8.13 µM) | 6.25 µg/mL (≈ 16.3 µM) | 0.78 µg/mL (≈ 2.03 µM) | 0.78 µg/mL (≈ 2.03 µM) | 0.78 µg/mL (≈ 2.03 µM) | 3.12 µg/mL (≈ 8.13 µM) | 0.78 µg/mL (≈ 2.03 µM) | 100 µg/mL (≈ 260 µM) |  | IC50 (Dihydrofolate reductase): 350 nM; MIC (Escherichia coli [3]): 25 µg/mL (≈ 65 µM); IC50 (DNA gyrase subunit B): 1620 nM; IC50 [5]: 66700 nM
Fc1ccc(NC(=S)Nc2nnc(-c3ccc(Cl)cc3)s2)cc1 |  |  |  |  |  |  |  |  |  |  |  |  |  | 11 µM (≈ 4 µg/mL) | 
Fc1ccc(NC(=S)Nc2nnc(-c3ccc(F)cc3)s2)cc1 |  |  |  |  |  |  |  |  |  |  |  |  |  | 10.9 µM (≈ 3.8 µg/mL) | 
O=C(O)c1cn(C2CC2)c2cc(N3CCNCC3)c(F)cc2c1=O [CIPROFLOXACIN] |  | 3.12 µg/mL (≈ 9.43 µM) |  |  |  | 1.56 µg/mL (≈ 4.71 µM) | 3.12 µg/mL (≈ 9.43 µM) |  | 1.56 µg/mL (≈ 4.71 µM) |  |  | 1.56 µg/mL (≈ 4.71 µM) | 3.12 µg/mL (≈ 9.43 µM) |  | 
CC[C@@H](CO)NCCN[C@@H](CC)CO [ETHAMBUTOL] |  |  |  |  |  |  |  |  |  |  |  |  |  | 11.5 µM (≈ 2.35 µg/mL) | 
OC(Cn1cncn1)(Cn1cncn1)c1ccc(F)cc1F [FLUCONAZOLE] | 0.78 µg/mL (≈ 2.55 µM) |  | 0.78 µg/mL (≈ 2.55 µM) |  |  |  |  | 0.78 µg/mL (≈ 2.55 µM) |  | 1.56 µg/mL (≈ 5.09 µM) | 0.78 µg/mL (≈ 2.55 µM) |  |  |  | MIC (Aspergillus flavus [8]): 6.25 µg/mL (≈ 20.4 µM); MIC (Staphylococcus aureus [9]): 6.25 µg/mL (≈ 20.4 µM); MIC (Candida albicans [10]): 6.25 µg/mL (≈ 20.4 µM); MIC (Candida albicans [11]): 0.05 µg/mL (≈ 0.163 µM); MIC (Escherichia coli [12]): 6.25 µg/mL (≈ 20.4 µM)
NNC(=O)c1ccncc1 [ISONIAZID] |  |  |  |  |  |  |  |  |  |  |  |  |  | 17.8 µM (≈ 2.44 µg/mL) | 
Clc1ccc(COC(Cn2ccnc2)c2ccc(Cl)cc2Cl)c(Cl)c1 (stereo not drawn) [MICONAZOLE] | 3.12 µg/mL (≈ 7.51 µM) |  | 3.12 µg/mL (≈ 7.51 µM) |  |  |  |  | 3.12 µg/mL (≈ 7.51 µM) |  | 1.56 µg/mL (≈ 3.75 µM) | 1.56 µg/mL (≈ 3.75 µM) |  |  |  | 
NC(=O)N/N=C/c1ccc([N+](=O)[O-])o1 [NITROFURAZONE] |  |  |  |  |  |  |  |  |  |  |  |  |  |  | MIC (Aspergillus flavus [8]): 6.25 µg/mL (≈ 31.5 µM); MIC (Staphylococcus aureus [9]): 6.25 µg/mL (≈ 31.5 µM); MIC (Candida albicans [10]): 6.25 µg/mL (≈ 31.5 µM); MIC (Escherichia coli [12]): 6.25 µg/mL (≈ 31.5 µM)
CN[C@H](CC(C)C)C(=O)N[C@H]1C(=O)N[C@@H](CC(N)=O)C(=O)N[C@H]2C(=O)N[C@H]3C(=O)N[C@H](C(=O)N[C@H](C(=O)O)c4cc(O)cc(O)c4-c4cc3ccc4O)[C@H](O)c3ccc(c(Cl)c3)Oc3cc2cc(c3O[C@@H]2O[C@H](CO)[C@@H](O)[C@H](O)[C@H]2O[C@H]2C[C@](C)(N)[C@H](O)[C@H](C)O2)Oc2ccc(cc2Cl)[C@H]1O [VANCOMYCIN] |  | 1.56 µg/mL (≈ 1.08 µM) |  | 1.56 µg/mL (≈ 1.08 µM) | 1.56 µg/mL (≈ 1.08 µM) |  | 0.78 µg/mL (≈ 0.538 µM) |  |  |  |  |  | 1.56 µg/mL (≈ 1.08 µM) |  | 
